According to patent US10639371B2, “Thermoresponsive bioconjugates and their controlled delivery of cargo” (University of Delaware, priority 2015, dated 2020):
Where no end group is shown, it is not given here.

Legend:
[1] = Dynamic light scattering (DLS) of assemblies upon heating; format: physicochemical; details: ELP alone, 1 mg/mL in water
Experimental: (A) ELP at 1 mg/mL in water; (B) ELP and CLP physical mixture at 0.5 mg/mL each in water.
The anticipated assembly of ELP-CLP nanostructures at physiologically relevant temperatures was confirmed via dynamic light scattering (DLS) (FIG. 3). In contrast to our expectations that nanoparticle formation would be triggered at near physiological temperature, however, the conjugates formed structures with hydrodynamic diameters (Dh) that ranged from approximately 50 to 200 nm at all temperatures between 4° C. and 65° C. (FIG. 3a), with a Dh of approximately 160 nm at 37° C. (FIG. 3b).
The anchoring of the ELP by the noncovalent formation of CLP triple helix, however, should offer unique and as yet unreported opportunities to reversibly modulate the transition temperatures of the ELP domain and to thus confer dual thermoresponsiveness to the conjugates. Indeed, after an initial increase in the Dh of the ELP-CLP nanoparticles with heating to 50° C. (FIG. 3), Dh begins to decrease once the sample is heated above this temperature, which is also approximately the melting temperature of the CLP (FIG. 2b). With additional heating to 80° C., the CLP unfolds completely (FIG. 2b), and the nanoparticles become fully solubilized as monomers with an average Dh of only 5.6 nm (FIG. 3b). […]

[2] = Circular dichroic spectroscopy (CD), thermal unfolding of CLP triple helix; format: physicochemical; details: first derivative of CD melting curve
Experimental: (§1) The ability of the CLP domain to form stable triple helix at physiological temperature while conjugated to the ELP was probed via circular dichroic spectroscopy (CD). The CD spectra of ELP-CLP at temperatures ranging from 5° C. to 80° C. […] Presumably, the collapse of the ELP domain at the elevated temperatures anchors the CLP and stabilizes it against unfolding, similar to our previously reported results for a polymer-conjugated CLP. The refolding of the CLP triple helix (FIGS. 2c and 2d) is likewise accelerated by the ELP anchoring of the CLP, owing to the increase in the local concentration of the CLP strands.

[3] = CD refolding of CLP triple helix after quenching from 80° C. to 5° C.; format: physicochemical
Experimental: as §1

[4] = tested on: TNF-α production from RAW264.7 macrophages; assay: TNF-α ELISA, RAW264.7 macrophages (inflammation response); format: cell-based
Experimental: Blank PBS was used as a negative control and lipopolysaccharide (LPS, 50 ng/mL) was used as a positive control; and (B) TNF-α production from RAW264.7 macrophages, treated with ELP-CLP nanoparticles at various concentrations. Blank PBS was used as a negative control and lipopolysaccharide (LPS, 50 ng/mL) was used as a positive control.
(B) Viability of NIH-3T3 fibroblasts (8,000 cells/cm^2 in DMEM/10% FBS); live/dead overlay shown. (C) TNF-α production from RAW264.7 murine macrophage-like cell culture (15,000 cells/cm^2 in DMEM/10% FBS) in the presence of various concentrations of CLP-ELP nanoparticles.
RAW264.7 murine macrophages were purchased from American Type Culture Collection (ATCC) and were cultured in DMEM (Sigma Aldrich) supplemented with 10% heat-inactivated fetal bovine serum (MediaTech), 10 mM HEPES (GIBCO), 55 μM β-mercaptoethanol (GIBCO), and 1% antibiotic/antimycotic (GIBCO) at 37° C. with 5% CO2. […] Cell metabolism post-treatment was assayed using PrestoBlue Viability Assay (Life Technologies), which provides a fluorescence measurement of the overall reductive capability of the cells, according to the manufacturer's instructions. […] After 2 h of incubation at 37° C., the medium was collected and analyzed using a PerkinElmer VICTOR3 1420 Multilabel Plate Reader (PerkinElmer, Waltham, Mass.) at excitation/emission wavelengths of 570 nm/615 nm. […]

## (VPGFG)6 (VPGFGVPGFGVPGFGVPGFGVPGFGVPGFG; also: alkyne functionalization, site not given here) [ELP]
[1]
  inverse transition / aggregation upon heating: does not undergo a transition

## (GPO)4GFOGER(GPO)4GG [CLP]
[2]
  Tm (unfolding of CLP triple helix): ca. 50 °C
[3]
  rate constant of triple helix refolding reaction: 1.14×10^7 M^−2·s^−1

## lipopolysaccharide [LPS]
[4]; FIG. 18C, 15,000 cells/cm^2, various concentrations
  TNF-α expression: elevated TNF-α expression
[4]; nanoparticles 50-1000 μg/mL, LPS 50 ng/mL, 8 h
  TNF-α expression: high levels of TNF-α expression
